System: ZO-1
Assay: Primary human T cells transfected with TCRs co-cultured overnight with HLA-DRB1*15:01 positive K562 target cells expressing antigen-encoding constructs, T cell activation via CD137 expression
Format: cell-based
Conditions: antigen-encoding construct delivered as IVT RNA to K562 cells

MEETAIWEQHTVTLHRA [ZO-1]
processing and presentation of the antigen by HLA-DRB1*15:01 positive target cells: processed and presented
